Measurements taken from PubChem BioAssay (NCI).
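Dose response: 5 concentrations. Exposure: 48 h. Format: 96-well plates. Endpoint: linear interpolation; highest concentration if not reached. The concentration for 50% growth inhibition is given as GI50. Definition used: TGI = concentration required for complete inhibition of growth.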

Legend:
Test in all cases: DTP human tumour cell line panel, 48 h
786-0 renal = system: 786-0 renal
A498 renal = system: A498 renal
A549 NSCLC = system: A549 NSCLC
ACHN renal = system: ACHN renal
CAKI-1 renal = system: CAKI-1 renal
CCRF-CEM leukemia = system: CCRF-CEM leukemia
COLO 205 colon = system: COLO 205 colon
DLD-1 colon = system: DLD-1 colon
DMS 114 small cell lung = system: DMS 114 small cell lung
DMS 273 small cell lung = system: DMS 273 small cell lung
HCC-2998 colon = system: HCC-2998 colon
HCT-116 colon = system: HCT-116 colon
HL-60(TB) leukemia = system: HL-60(TB) leukemia
HOP-18 NSCLC = system: HOP-18 NSCLC
HOP-92 NSCLC = system: HOP-92 NSCLC
HT29 colon = system: HT29 colon
IGROV1 ovarian = system: IGROV1 ovarian
K-562 leukemia = system: K-562 leukemia
KM12 colon = system: KM12 colon
LXFL 529 NSCLC = system: LXFL 529 NSCLC
MALME-3M melanoma = system: MALME-3M melanoma
MOLT-4 leukemia = system: MOLT-4 leukemia
NCI-H23 lung = system: NCI-H23 lung
NCI-H460 lung = system: NCI-H460 lung
NCI-H522 lung = system: NCI-H522 lung
OVCAR-3 ovarian = system: OVCAR-3 ovarian
OVCAR-5 ovarian = system: OVCAR-5 ovarian
OVCAR-8 ovarian = system: OVCAR-8 ovarian
RPMI-8226 leukemia = system: RPMI-8226 leukemia
RXF 393 renal = system: RXF 393 renal
RXF-631 renal = system: RXF-631 renal
SF-268 CNS = system: SF-268 CNS
SF-295 CNS = system: SF-295 CNS
SF-539 CNS = system: SF-539 CNS
SK-MEL-2 melanoma = system: SK-MEL-2 melanoma
SK-MEL-28 melanoma = system: SK-MEL-28 melanoma
SK-MEL-5 melanoma = system: SK-MEL-5 melanoma
SK-OV-3 ovarian = system: SK-OV-3 ovarian
SN12C renal = system: SN12C renal
SNB-19 CNS = system: SNB-19 CNS
SNB-75 CNS = system: SNB-75 CNS
SNB-78 CNS = system: SNB-78 CNS
SR leukemia = system: SR leukemia
SW-620 colon = system: SW-620 colon
TK-10 renal = system: TK-10 renal
U251 CNS = system: U251 CNS
UACC-257 melanoma = system: UACC-257 melanoma
UACC-62 melanoma = system: UACC-62 melanoma
UO-31 renal = system: UO-31 renal
EKVX NSCLC = system: EKVX NSCLC
HCT-15 colon = system: HCT-15 colon
HOP-62 NSCLC = system: HOP-62 NSCLC
KM20L2 colon = system: KM20L2 colon
LOX IMVI melanoma = system: LOX IMVI melanoma
M14 melanoma = system: M14 melanoma
NCI-H226 lung = system: NCI-H226 lung
OVCAR-4 ovarian = system: OVCAR-4 ovarian
XF 498 CNS = system: XF 498 CNS

ClC(Cl)[Si]12OCCN(CCO1)CCO2
TGI (786-0 renal): > 100 µM
TGI (A498 renal): > 100 µM
TGI (A549 NSCLC): > 100 µM
TGI (ACHN renal): > 100 µM
TGI (CAKI-1 renal): > 100 µM
TGI (CCRF-CEM leukemia): > 100 µM
TGI (COLO 205 colon): > 100 µM
TGI (DLD-1 colon): > 100 µM
TGI (DMS 114 small cell lung): > 100 µM
TGI (DMS 273 small cell lung): > 100 µM
TGI (HCC-2998 colon): > 100 µM
TGI (HCT-116 colon): > 100 µM
TGI (HL-60(TB) leukemia): > 100 µM
TGI (HOP-18 NSCLC): > 100 µM
TGI (HOP-92 NSCLC): > 100 µM
TGI (HT29 colon): > 100 µM
TGI (IGROV1 ovarian): > 100 µM
TGI (K-562 leukemia): > 100 µM
TGI (KM12 colon): > 100 µM
TGI (LXFL 529 NSCLC): > 100 µM
TGI (MALME-3M melanoma): > 100 µM
TGI (MOLT-4 leukemia): > 100 µM
TGI (NCI-H23 lung): > 100 µM
TGI (NCI-H460 lung): > 100 µM
TGI (NCI-H522 lung): > 100 µM
TGI (OVCAR-3 ovarian): > 100 µM
TGI (OVCAR-5 ovarian): > 100 µM
TGI (OVCAR-8 ovarian): > 100 µM
TGI (RPMI-8226 leukemia): > 100 µM
TGI (RXF 393 renal): > 100 µM
TGI (RXF-631 renal): > 100 µM
TGI (SF-268 CNS): > 100 µM
TGI (SF-295 CNS): > 100 µM
TGI (SF-539 CNS): > 100 µM
TGI (SK-MEL-2 melanoma): > 100 µM
TGI (SK-MEL-28 melanoma): > 100 µM
TGI (SK-MEL-5 melanoma): > 100 µM
TGI (SK-OV-3 ovarian): > 100 µM
TGI (SN12C renal): > 100 µM
TGI (SNB-19 CNS): > 100 µM
TGI (SNB-75 CNS): > 100 µM
TGI (SNB-78 CNS): > 100 µM
TGI (SR leukemia): > 100 µM
TGI (SW-620 colon): > 100 µM
TGI (TK-10 renal): > 100 µM
TGI (U251 CNS): > 100 µM
TGI (UACC-257 melanoma): > 100 µM
TGI (UACC-62 melanoma): > 100 µM
TGI (UO-31 renal): > 100 µM

COc1cccc(/C=N/[N-]C(N)=O)c1[O-].[Cu+2].[OH3+].c1ccc(-c2ccccn2)nc1
TGI (786-0 renal): 36.6 µM
TGI (A498 renal): 35.8 µM
TGI (A549 NSCLC): > 100 µM
TGI (ACHN renal): 98.9 µM
TGI (CAKI-1 renal): 83.7 µM
TGI (CCRF-CEM leukemia): > 95.6 µM
TGI (COLO 205 colon): 55.4 µM
TGI (EKVX NSCLC): > 78.2 µM
TGI (HCC-2998 colon): > 100 µM
TGI (HCT-116 colon): > 63 µM
TGI (HCT-15 colon): > 100 µM
GI50 (HL-60(TB) leukemia): 40.6 µM
TGI (HL-60(TB) leukemia): > 79.1 µM
TGI (HOP-62 NSCLC): > 67.7 µM
TGI (HOP-92 NSCLC): 29.8 µM
TGI (HT29 colon): > 100 µM
TGI (IGROV1 ovarian): > 74.8 µM
TGI (K-562 leukemia): 66 µM
TGI (KM12 colon): > 100 µM
TGI (KM20L2 colon): > 100 µM
TGI (LOX IMVI melanoma): > 81.3 µM
TGI (M14 melanoma): 74 µM
TGI (MALME-3M melanoma): > 100 µM
TGI (MOLT-4 leukemia): > 100 µM
TGI (NCI-H226 lung): 88.1 µM
TGI (NCI-H23 lung): 37.3 µM
TGI (NCI-H460 lung): > 100 µM
TGI (NCI-H522 lung): 28.4 µM
TGI (OVCAR-3 ovarian): > 100 µM
TGI (OVCAR-4 ovarian): 33.1 µM
TGI (OVCAR-5 ovarian): > 100 µM
TGI (OVCAR-8 ovarian): > 100 µM
TGI (RPMI-8226 leukemia): > 100 µM
TGI (RXF 393 renal): 40.8 µM
TGI (SF-268 CNS): > 100 µM
TGI (SF-295 CNS): > 100 µM
TGI (SF-539 CNS): 67.7 µM
TGI (SK-MEL-2 melanoma): 45.1 µM
TGI (SK-MEL-28 melanoma): 41.2 µM
TGI (SK-MEL-5 melanoma): 31.6 µM
TGI (SK-OV-3 ovarian): 27.3 µM
TGI (SN12C renal): > 96.8 µM
TGI (SNB-19 CNS): 38.1 µM
TGI (SNB-75 CNS): 33.9 µM
TGI (SR leukemia): > 100 µM
TGI (SW-620 colon): > 100 µM
TGI (TK-10 renal): 42.9 µM
TGI (U251 CNS): 31.3 µM
TGI (UACC-257 melanoma): > 100 µM
TGI (UACC-62 melanoma): 31.3 µM
TGI (UO-31 renal): > 100 µM
GI50 (XF 498 CNS): 7.92 µM
TGI (XF 498 CNS): 19.9 µM
